# Experimental data published in ChEMBL document CHEMBL1155546, “Rapid synthesis of an array of trisubstituted urea-based soluble epoxide hydrolase inhibitors facilitated by a novel solid-phase method” (Bioorg Med Chem Lett, 2010).
# How the values were obtained:
# [1] = target: T1, Bifunctional epoxide hydrolase 2 (Homo sapiens, UniProt P34913); assay: Inhibition of human soluble epoxide hydrolase assessed as [2-3H]trans-1,3-diphenyl propylene oxide hydrolysis by cellular assay
# T1 sequence (P34913 whole entry): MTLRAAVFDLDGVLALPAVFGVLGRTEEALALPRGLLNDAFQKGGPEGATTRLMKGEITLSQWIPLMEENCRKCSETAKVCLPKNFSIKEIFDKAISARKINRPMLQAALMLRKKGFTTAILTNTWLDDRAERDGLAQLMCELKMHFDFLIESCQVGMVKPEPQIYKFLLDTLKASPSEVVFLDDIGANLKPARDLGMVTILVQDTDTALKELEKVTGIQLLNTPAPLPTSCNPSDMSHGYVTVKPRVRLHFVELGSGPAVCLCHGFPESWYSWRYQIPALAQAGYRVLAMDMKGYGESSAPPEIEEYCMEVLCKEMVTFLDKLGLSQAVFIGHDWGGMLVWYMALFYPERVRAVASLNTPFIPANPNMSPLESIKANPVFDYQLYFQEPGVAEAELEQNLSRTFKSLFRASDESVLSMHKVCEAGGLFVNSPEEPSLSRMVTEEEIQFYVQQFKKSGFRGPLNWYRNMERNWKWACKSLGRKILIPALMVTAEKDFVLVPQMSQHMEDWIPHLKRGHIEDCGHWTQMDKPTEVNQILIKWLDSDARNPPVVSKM
# [2] = Half life in human liver microsome; type: ADME; settings: liver microsomes
# [3] = Half life in mouse liver microsome; type: ADME; settings: liver microsomes
# Cytochrome P450 2C9 = Cytochrome P450 2C9 (Homo sapiens, UniProt P11712); assay: Inhibition of CYP2C9; type: ADME
# Sequence of Cytochrome P450 2C9 (P11712 whole entry): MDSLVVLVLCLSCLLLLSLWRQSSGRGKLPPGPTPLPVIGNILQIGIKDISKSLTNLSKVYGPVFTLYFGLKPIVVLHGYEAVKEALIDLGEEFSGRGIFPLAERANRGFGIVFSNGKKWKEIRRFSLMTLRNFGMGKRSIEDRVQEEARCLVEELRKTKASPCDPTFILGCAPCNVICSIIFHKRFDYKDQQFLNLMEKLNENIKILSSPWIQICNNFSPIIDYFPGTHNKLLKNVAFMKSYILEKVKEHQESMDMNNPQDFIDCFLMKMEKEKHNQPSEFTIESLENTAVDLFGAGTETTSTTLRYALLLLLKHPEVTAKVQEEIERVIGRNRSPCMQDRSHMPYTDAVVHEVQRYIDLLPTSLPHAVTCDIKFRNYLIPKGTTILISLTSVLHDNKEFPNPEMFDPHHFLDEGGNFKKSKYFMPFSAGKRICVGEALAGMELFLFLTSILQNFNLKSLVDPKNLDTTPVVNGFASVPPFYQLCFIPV
# [4] = target: T1, Bifunctional epoxide hydrolase 2; assay: Inhibition of human soluble epoxide hydrolase
# Cytochrome P450 2J2 = target: T2, Cytochrome P450 2J2 (Homo sapiens, UniProt P51589); assay: Inhibition of CYP2J2
# T2 sequence (P51589 whole entry): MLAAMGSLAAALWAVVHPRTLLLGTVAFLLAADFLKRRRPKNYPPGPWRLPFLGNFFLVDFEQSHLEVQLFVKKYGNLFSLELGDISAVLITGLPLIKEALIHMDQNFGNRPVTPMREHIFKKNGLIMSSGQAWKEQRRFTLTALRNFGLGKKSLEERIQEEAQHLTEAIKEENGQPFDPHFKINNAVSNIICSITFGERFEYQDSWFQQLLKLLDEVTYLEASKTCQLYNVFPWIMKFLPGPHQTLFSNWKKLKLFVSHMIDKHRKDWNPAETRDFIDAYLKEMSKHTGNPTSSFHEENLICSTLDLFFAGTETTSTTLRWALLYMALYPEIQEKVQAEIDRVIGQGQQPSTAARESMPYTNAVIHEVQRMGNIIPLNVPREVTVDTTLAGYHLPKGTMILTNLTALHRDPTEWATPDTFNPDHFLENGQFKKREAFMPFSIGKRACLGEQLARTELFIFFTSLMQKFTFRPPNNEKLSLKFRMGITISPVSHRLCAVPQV
SMILES,IC50 [1] [nM],half-life [2] [min],half-life [3] [min],IC50 (Cytochrome P450 2C9) [nM],IC50 [4] [nM],IC50 (Cytochrome P450 2J2) [nM]
O=C(NCCC(c1ccc(F)cc1)c1ccc(F)cc1)N1CCC(Oc2cnccn2)CC1,13,7,2,2900,1,
O=C(NCc1ccccc1OC(F)(F)F)N1CCC(c2ccncc2)C1 (stereo not drawn),76,23,42,300,7,10000
O=C(NCc1ccccc1OC(F)(F)F)N1CCC(Oc2ncccn2)CC1,40,54,10,10200,4,2000
O=C(NCc1ccc(Cl)cc1Cl)N1CCC(Oc2ccncc2)CC1,22,42,25,100,9,2700
O=C(NCCC(c1ccc(F)cc1)c1ccc(F)cc1)N1CCC(c2cnccn2)C1 (stereo not drawn),4,2,2,8100,3,
O=C(NCc1ccccc1OC(F)(F)F)N1CCC(Oc2ccncc2)CC1,,34,42,800,14,10000
